Patent US11492379B2 (priority 2020, dated 2022)

Tested on: icSARS-CoV-2-GFP
Type: cell-based, SARS-CoV-2

**Q.** What does the source list for trypsin?
**A.** syncytium formation: did not trigger syncytium formation; virus titers relative to controls: slightly lower virus titers than controls
